# Experimental data from paper PMC11484942, “Rumicidins are a family of mammalian host-defense peptides plugging the 70S ribosome exit tunnel” (Nature Communications, 2024).
# Ends that are not written are not given here.
# Experiments:
# [1] = system: E. coli 1057 WT; experiment: microbe, parasite or virus in culture; assay type: cell-based, Escherichia coli; settings: MHB + 0.9% NaCl
# [2] = system: E. coli 1057 R2 (rpoS^Q3stop, macB^N470D); settings: MHB + 0.9% NaCl
# Description: Minimum inhibitory concentrations (MIC) were determined by broth microdilution assay based on Clinical and Laboratory Standards Institute (CLSI) guidelines using BSA in the growth medium to minimize AMP nonspecific adsorption. Bacterial test cultures were grown in the Mueller-Hinton broth (MHB, Sigma) at 37 °C to mid-log phase and then diluted with the 2× MH medium supplemented with 1.8% NaCl (or without salt) so that to reach a final cell concentration of 10^6 CFU/mL. 50 µL of the obtained bacterial suspension were added to aliquots of 50 µL of the peptide solutions serially diluted with sterilized 0.1% bovine serum albumin (BSA) in 96-well flat-bottom polystyrene microplates (Eppendorf #0030730011). […] To verify MIC values, the respiratory activity of the bacteria was determined. Briefly, 5 µL of 0.5 mg/mL resazurin (Sigma) was added to the wells after 24 h (or after 48 h for M. smegmatis) of incubation, and the plate was incubated for additional 3 h. In some cases, MICs were determined in the Lysogeny Broth (LB) or Middlebrook 7H9 medium. The reduction of resazurin to resorufin was recorded. […] The results were expressed as the median values determined based on at least three independent experiments performed in triplicate.
# Resistance induction experiments were performed using the previously described method. This approach allows for monitoring MIC values after each transfer. Briefly, on the first day, the overnight culture of the wild-type bacteria was diluted with the 2× MHB supplemented with 1.8% NaCl (or without salt) to reach a final cell concentration of 10^6 CFU/mL. 50 µL of the obtained bacterial suspension were added to aliquots of 50 µL of the peptide solutions serially diluted with the sterilized 0.1% BSA in 96-well flat-bottom polystyrene microplates. After incubation for 20 ± 2 h at 37 °C and 950 rpm, MICs were determined as described above. For each subsequent daily transfer, 2–4 μL of the inoculum taken from the first well containing a sub-inhibitory drug concentration was diluted with 2 mL of the fresh 2× MHB supplemented with 1.8% NaCl (or without salt). […] Multiple repeated passages in the presence of antimicrobial agents were performed for each bacterial strain during the experiment. Bacteria that grew at the highest concentrations of AMPs on the final day were passaged further 3 times on drug-free agar plates before determining the final MIC value.
# [3] = system: E. coli BL21 (DE3) Star cell extract; experiment: Cell-free protein synthesis (coupled transcription/translation) of EGFP; assay type: biochemical, Escherichia coli; settings: minimum concentration that provides >90% inhibition of the EGFP synthesis in the CFPS system
# Description: To investigate the effects of AMPs and antibiotics on the coupled transcription/translation process, the test compounds were added to a cell-free protein synthesis (CFPS) reaction mix with a plasmid encoding enhanced green fluorescent protein (EGFP) variant (F64L, S65T, Q80R, F99S, M153T, and V163A) under control of the T7 promoter. The cell lysate was prepared using the E. coli BL21 Star (DE3) overexpressed T7 RNA polymerase as described previously. The reaction mix consisted of the following components: 1.2 mM ATP, 0.8 mM UTP, 0.8 mM GTP, 0.8 mM CTP, 2 mM of each of 20 proteinogenic amino acids, 1.5 mM spermidine, 1 mM putrescine dihydrochloride, 0.06647 mM calcium folinate, […] tRNA from the E. coli MRE 600 strain, 0.33 mM NAD, 120 mM HEPES-KOH (pH 8.0), 10 mM ammonium glutamate, 175 mM potassium glutamate, 60 mM glucose, 15 mM magnesium glutamate, 2% PEG 8000, 25% E. coli BL21 Star (DE3) cell lysate, 1 ng/ml plasmid DNA. The reaction volume was 50 µL. The peptides were dissolved in PBS with the addition of 0.1% BSA. Erythromycin was used in the positive control reactions. The fluorescence of the sample without inhibitor was set as the 100% value. The reaction proceeded for 2 h in 96-well v-bottom black polystyrene microplates (Eppendorf #0030601904) in a plate shaker (30 °C, 1000 rpm). The fluorescence of the synthesized EGFP was measured with the microplate reader AF2200 (λEx = 488 nm, λEm = 510 nm; Eppendorf). The experimental data were obtained from at least two independent experiments performed in triplicate. Non-linear regression curves were generated using GraphPad Prism v.8.0.1 (GraphPad Software Inc.).
# [4] = system: E. coli BW25113; experiment: MIC broth microdilution; assay type: cell-based, Escherichia coli; settings: for Minimum inhibitory concentration MHB + 0.9% NaCl: Mueller-Hinton broth + 0.9% NaCl; for Minimum inhibitory concentration MHB + 0.9% NaCl / Minimum inhibitory concentration MHB: 24 h 37 °C, median of ≥3 experiments; for Minimum inhibitory concentration MHB: Mueller-Hinton broth without salt; for fold change of MIC vs wild-type rumicidin-1: N-terminal shortening
# Description: (§1) The reduction of resazurin to resorufin was recorded.
# [5] = system: Mycobacterium smegmatis mc(2)155; assay type: cell-based; settings: Mycobacterium mc(2)155, 24 h
# Description: as §1
# [6] = system: S. aureus ATCC 29213; assay type: cell-based, Staphylococcus aureus; settings: ATCC 29213, 24 h
# Description: as §1
# [7] = system: HEK293T (transformed embryonic kidney cells); experiment: MTT cytotoxicity; assay type: cell-based, human; settings: mean
# Description: (§2) Hemolytic activity of the peptides was tested against the fresh suspension of human red blood cells (hRBC) using the hemoglobin release assay as described previously. Two experiments were performed with the hRBC from blood samples collected from healthy donors by certified medical personnel upon informed written consent. All procedures were approved by the Ethics Committee of the Institute of Experimental Medicine (protocol 1/20 of 2/27/2020) and comply with the ethical principles of the Declaration of Helsinki. The quantitative data were represented as average means with standard deviations. The colorimetric 3-(4,5-dimethylthiazol-2-yl)-2,5-diphenyltetrazolium bromide (MTT) dye reduction assay was used to determine cytotoxicity of the peptides against human keratinocyte cell line (HaCaT) and transformed human embryonic kidney cells (HEK293T). Both cell lines were purchased from American Type Culture Collection (ATCC). 10^4 cells per well in Dulbecco’s modified Eagle’s medium (DMEM/F12) supplemented with 10% fetal bovine serum (FBS, Invitrogen) were placed into 96-well plates and then cultured in the CO2-incubator (5% CO2, 37 °C). After the media were removed, the peptides were dissolved in 100 µL of the same medium and added to cell cultures at different final concentrations. 20 h later, 20 μL of MTT (5 mg/mL, Sigma) was added to each well, and the plates were incubated for 4 h at 37 °C. Then, the media were discarded and 100 µL DMSO-isopropanol mixture at a ratio of 1:1 (v/v) was added to each well to dissolve the crystallized formazan. The absorbance at 570 nm was measured by a microplate reader AF2200 (Eppendorf). An optical density in the wells containing cells cultured without the peptides was assumed to represent 100% cell viability. Two independent experiments were performed for each peptide.
# [8] = system: HaCaT (keratinocytes); experiment: MTT cytotoxicity; assay type: cell-based, human; settings: mean
# Description: as §2
compound,measurement,setting,value
CO/N=C(\C(=O)N[C@@H]1C(=O)N2C(C(=O)O)=C(CSc3nc(=O)c(=O)[nH]n3C)CS[C@H]12)c1csc(N)n1 [Ceftriaxone],MIC,"[1]; Escherichia coli, 1057WT, 24 h",128 µM
RRLRPRRPRLPRPRPRPRPRPR [mini-ChBac7.5Nα],MIC,[2],> 32 µM
PHRPRPRPRPWFPPRFP [Rum-1[13-29]],Protein synthesis inhibition,[3],64 µM
same,Minimum inhibitory concentration MHB + 0.9% NaCl,[4],> 256 µM
same,Minimum inhibitory concentration MHB,[4],32 µM
RPPHRPRPRPRPWFPPRFP [Rum-1[11-29]],Protein synthesis inhibition,[3],32 µM
same,Minimum inhibitory concentration MHB + 0.9% NaCl,[4],64 µM
same,Minimum inhibitory concentration MHB,[4],8 µM
same,fold change of MIC vs wild-type rumicidin-1,[4],≥ 4 fold
CC1(C)S[C@@H]2[C@H](NC(=O)[C@H](N)c3ccccc3)C(=O)N2[C@H]1C(=O)O [Ampicillin],MIC,"[1]; Escherichia coli, 1057WT, 24 h",> 128 µM
RDRRRRPPRPRPPHRPRPRPLPWFPPRFP [Rumicidin-2],Minimum inhibitory concentration (MIC),[5],1 µM
same,MIC S. aureus ATCC 29213,[6],> 32 µM
same,MIC,[2],> 64 µM
RARRPRPPKPRPPHRPRPRPRP [Rum-1[1-22]],Minimum inhibitory concentration MHB + 0.9% NaCl,[4],256 µM
same,Minimum inhibitory concentration MHB,[4],16 µM
NC[C@H]1O[C@H](O[C@H]2[C@H](O)[C@@H](O[C@H]3O[C@H](CO)[C@@H](O)[C@H](N)[C@H]3O)[C@H](N)C[C@@H]2N)[C@H](O)[C@@H](O)[C@@H]1O [Kanamycin],MIC,[2],8 µM
same,MIC,[1],8 µM
CC[C@H](C)[C@H](NC(=O)CN)C(=O)NCC(=O)N[C@@H](C)C(=O)N[C@H](C(=O)N[C@@H](CC(C)C)C(=O)N[C@@H](CCCCN)C(=O)N[C@H](C(=O)N[C@@H](CC(C)C)C(=O)N[C@H](C(=O)N[C@H](C(=O)NCC(=O)N[C@@H](CC(C)C)C(=O)N1CCC[C@H]1C(=O)N[C@@H](C)C(=O)N[C@@H](CC(C)C)C(=O)N[C@H](C(=O)N[C@@H](CO)C(=O)N[C@@H](Cc1c[nH]c2ccccc12)C(=O)N[C@H](C(=O)N[C@@H](CCCCN)C(=O)N[C@@H](CCCNC(=N)N)C(=O)N[C@@H](CCCCN)C(=O)N[C@@H](CCCNC(=N)N)C(=O)N[C@@H](CCC(N)=O)C(=O)N[C@@H](CCC(N)=O)C(N)=O)[C@@H](C)CC)[C@@H](C)CC)[C@@H](C)O)[C@@H](C)O)C(C)C)C(C)C [Melittin],MIC,[2],16 µM
same,HEK293T cell viability,[7]; 0.25 µM,101.366%
same,HEK293T cell viability,[7]; 0.5 µM,102.416%
same,HEK293T cell viability,[7]; 1 µM,98.73%
same,HEK293T cell viability,[7]; 2 µM,27.546%
same,HEK293T cell viability,[7]; 4 µM,9.889%
same,HEK293T cell viability,[7]; 8 µM,9.248%
same,HEK293T cell viability,[7]; 16 µM,9.026%
same,HaCaT cell viability,[8]; 0.25 µM,102.196%
same,HaCaT cell viability,[8]; 0.5 µM,104.998%
same,HaCaT cell viability,[8]; 1 µM,106.041%
same,HaCaT cell viability,[8]; 2 µM,106.484%
same,HaCaT cell viability,[8]; 4 µM,67.714%
same,HaCaT cell viability,[8]; 8 µM,4.039%
same,HaCaT cell viability,[8]; 16 µM,2.958%
same,HaCaT cell viability,[8]; 32 µM,4.046%
same,MIC,[1],8 µM
[H]/N=C(/N)N[C@H]1[C@H](O)[C@@H](O)[C@H](O[C@@H]2O[C@@H](C)[C@](O)(C=O)[C@H]2O[C@@H]2O[C@@H](CO)[C@H](O)[C@@H](O)[C@@H]2NC)[C@@H](N/C(N)=N\[H])[C@@H]1O [Streptomycin],MIC,"[1]; Escherichia coli, 1057WT, 24 h",4 µM
Gentamycin,MIC,[2],2 µM
same,MIC,[1],2 µM
RPRPPKPRPPHRPRPRPRPWFPPRFP [Rum-1[4-29]],Protein synthesis inhibition,[3],4 µM
same,Minimum inhibitory concentration MHB + 0.9% NaCl,[4],16 µM
same,Minimum inhibitory concentration MHB,[4],4 µM
same,fold change of MIC vs wild-type rumicidin-1,[4],two-fold
RPPKPRPPHRPRPRPRPWFPPRFP [Rum-1[6-29]],Protein synthesis inhibition,[3],4 µM
same,Minimum inhibitory concentration MHB + 0.9% NaCl,[4],16 to 32 µM
same,Minimum inhibitory concentration MHB,[4],4 µM
same,fold change of MIC vs wild-type rumicidin-1,[4],two-fold
"RGGRLCYCRRRFCVCVGR (Protegrin-1; UniProt P32194 131-148, looked up) [β-hairpin AMP; recombinant]",MIC,[2],0.25 µM
same,MIC,[1],0.25 µM
RARRPRPPKPRPPHRP [Rum-1[1-16]],Minimum inhibitory concentration MHB + 0.9% NaCl,[4],> 256 µM
same,Minimum inhibitory concentration MHB,[4],256 µM
CN(C)[C@@H]1C(O)=C(C(N)=O)C(=O)[C@@]2(O)C(O)=C3C(=O)c4c(O)cccc4[C@@](C)(O)[C@H]3C[C@@H]12 [Tetracycline],MIC,"[1]; Escherichia coli, 1057WT, 24 h",4 µM
O=C(N[C@H](CO)[C@H](O)c1ccc([N+](=O)[O-])cc1)C(Cl)Cl [Chloramphenicol],MIC,"[1]; Escherichia coli, 1057WT, 24 h",16 µM
CCC[C@@H]1C[C@@H](C(=O)N[C@@H]([C@H]2O[C@H](SC)[C@H](O)[C@@H](O)[C@H]2O)[C@H](C)Cl)N(C)C1 [Clindamycin],MIC,"[1]; Escherichia coli, 1057WT, 24 h",128 µM
CO[C@H]1/C=C/O[C@@]2(C)Oc3c(C)c(O)c4c(O)c(c(/C=N/N5CCN(C)CC5)c(O)c4c3C2=O)NC(=O)/C(C)=C\C=C\[C@H](C)[C@H](O)[C@@H](C)[C@@H](O)[C@@H](C)[C@H](OC(C)=O)[C@@H]1C [Rifampicin],MIC,"[1]; Escherichia coli, 1057WT, 24 h",32 µM
CN[C@@H]1[C@H](O)[C@H](NC)[C@H]2O[C@@]3(O)C(=O)C[C@@H](C)O[C@H]3O[C@@H]2[C@H]1O [Spectinomycin],MIC,"[1]; Escherichia coli, 1057WT, 24 h",64 µM
RPRPRPRPWFPPRFP [Rum-1[15-29]],Protein synthesis inhibition,[3],256 µM
same,Minimum inhibitory concentration MHB + 0.9% NaCl,[4],> 256 µM
same,Minimum inhibitory concentration MHB,[4],32 µM
